Experimental data taken from patent publication EP3221422B1, “COPPER(I) COMPLEXES FOR OPTOELECTRONIC APPLICATIONS” (cynora GmbH, priority 2014, dated 2016).

Test: Solubility tests of copper(I) complexes in organic solvents
Type: physicochemical
Conditions: for Löslichkeit (qualitative): effect of the unsymmetrical ligand m-Tolylphosphin s
Description: Bei Koordination an ein Kupferatom könnten die m-Tolyl-Gruppen jeweils auf zwei verschiedene Weisen gedreht vorliegen (Figur 5). Vermutlich wird auf dieses Weise die Packung im Festkörper gestört, wodurch eine höhere Löslichkeit erzielt wird. In der Wärme (60 °C) wurde beispielsweise für Komplex 1-I-s eine Löslichkeit von rund 40 mg mL^-1 erreicht; weitere Löslichkeitsdaten sind in Tabelle 1 aufgeführt.
Komplex 1-I-s zeigt neben einer guten Löslichkeit auch eine besonders hohe Quanteneffizienz, sowohl in Pulver (93%) als auch im Dünnfilm (90%). Interessanterweise kommt es bei der Filmpräparation dieser Verbindung zu nahezu keiner Verschiebung der Emissionswellenlänge (Film: 550 nm, Pulver: 547 nm). Offenbar liegt bereits im Festkörper eine Verzerrung ähnlich der Situation im Film vor. Die Struktur wird, wie oben erläutert wurde, durch die als sterisch anspruchsvolle Gruppen wirkenden Tolylreste stabilisiert. Tabelle 1: Löslichkeitstests für Komplex 1-I-s.

(Tris-(3-methyl-phenyl)phosphin)(4-tBu-pyridin)Cu2I2 [E-I-s]
erhöhte Löslichkeit: Löslichkeit (qualitative)

(PyrPHOS)(tris-m-tolyl-phosphin)2Cu2I2 [Komplex 11-I-s]
erhöhte Löslichkeit: Löslichkeit (qualitative)

(Tris-(3-methyl-phenyl)phosphin)(4-tBu-pyridin)Cu2Br2 [E-Br-s]
erhöhte Löslichkeit: Löslichkeit (qualitative)

(MePyrPHOS)(Tris-m-tolyl-phosphin)2Cu2I2 [Komplex 1-I-s]
Ja (Wärme): Löslichkeit (1-Heptanol, Konzentration: 5 mg/mL) | Löslichkeit (1-Heptanol, Konzentration: 10 mg/mL) | Löslichkeit (1-Hexanol, Konzentration: 5 mg/mL) | Löslichkeit (1-Hexanol, Konzentration: 10 mg/mL) | Löslichkeit (Acetonitril, Konzentration: 5 mg/mL) | Löslichkeit (Acetonitril, Konzentration: 10 mg/mL) | Löslichkeit (Cyclooctan, Konzentration: 5 mg/mL)
Ja: Löslichkeit (1-Heptanol, Konzentration: 2,5 mg/mL) | Löslichkeit (1-Hexanol, Konzentration: 2,5 mg/mL) | Löslichkeit (Aceton, Konzentration: 5 mg/mL) | Löslichkeit (Aceton, Konzentration: 10 mg/mL) | Löslichkeit (Aceton, Konzentration: 2,5 mg/mL) | Löslichkeit (Acetonitril, Konzentration: 2,5 mg/mL) | Löslichkeit (Cyclooctan, Konzentration: 2,5 mg/mL) | Löslichkeit (Essigester, Konzentration: 5 mg/mL) | Löslichkeit (Essigester, Konzentration: 10 mg/mL) | Löslichkeit (Essigester, Konzentration: 2,5 mg/mL) | Löslichkeit (Mesitylen, Konzentration: 5 mg/mL) | Löslichkeit (Mesitylen, Konzentration: 10 mg/mL) | Löslichkeit (Mesitylen, Konzentration: 2,5 mg/mL) | Löslichkeit (O-Xylol, Konzentration: 5 mg/mL) | Löslichkeit (O-Xylol, Konzentration: 10 mg/mL) | Löslichkeit (O-Xylol, Konzentration: 2,5 mg/mL) | Löslichkeit (Tetralin, Konzentration: 5 mg/mL) | Löslichkeit (Tetralin, Konzentration: 10 mg/mL) | Löslichkeit (Tetralin, Konzentration: 2,5 mg/mL)
Nein: Löslichkeit (Cyclooctan, Konzentration: 10 mg/mL)
~40 mg/mL: Löslichkeit (In der Wärme (60 °C), solvent not stated)
≤ 20 mg/mL: Löslichkeit (max.) (Mesitylen) | Löslichkeit (max.) (O-Xylol) | Löslichkeit (max.) (Tetralin)
erhöhte Löslichkeit: Löslichkeit (qualitative)
